Measurements as given in US20170334899A1, “AMINO-SUBSTITUTED ISOTHIAZOLES” (Bayer Pharma Aktiengesellschaft, priority 2014, published 2017).

Legend:
[1] = system: human cervical tumor cell line HeLa (ATCC CCL-2); assay: SAC-Formation - Nocodazole-Induced Assay; format: cell-based; conditions: Homo sapiens, HeLa, 24 h, HeLa cells, nocodazole 0.1 μg/ml together with test compound, decrease of mitotic cells (phospho-histone H3 Ser10)
Method in brief: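 HeLa cells, plated overnight, were treated 24 h at 37 °C with nocodazole (0.1 μg/ml final) plus test compound (0.005–20 μM, 0.5% DMSO) added at the same time. After fixation, anti-phospho-histone H3 Ser10 and Hoechst staining gave the mitotic cell fraction by imaging. Values came from four-parameter Hill fits.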

[2] = biological target: T1, catalytic domain of human Bub1 (amino acids 704-1085) (Homo sapiens, UniProt O43683); assay: Bub1 kinase assay (TR-FRET); format: biochemical; conditions: 10 μM ATP, avg, read-out: Bub1 avg (IC50 [mol/l])
T1 construct: catalytic domain of human Bub1 (amino acids 704-1085); His6 (N); made in house; host or cells: insect cells (Hi5)
Method in brief: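 Readout is the 665/620 nm TR-FRET ratio from anti-phosphoserine antibody, Eu-labelled anti-mouse IgG and streptavidin-XL665, scaled between no-enzyme and uninhibited controls. Reaction: 1 μM biotinylated peptide, 10 μM ATP, 60 min, 22 °C, after 15 min compound preincubation with His6-Bub1 (704-1085, insect-expressed, ~200 ng/ml).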

T1 sequence (O43683 704-1085): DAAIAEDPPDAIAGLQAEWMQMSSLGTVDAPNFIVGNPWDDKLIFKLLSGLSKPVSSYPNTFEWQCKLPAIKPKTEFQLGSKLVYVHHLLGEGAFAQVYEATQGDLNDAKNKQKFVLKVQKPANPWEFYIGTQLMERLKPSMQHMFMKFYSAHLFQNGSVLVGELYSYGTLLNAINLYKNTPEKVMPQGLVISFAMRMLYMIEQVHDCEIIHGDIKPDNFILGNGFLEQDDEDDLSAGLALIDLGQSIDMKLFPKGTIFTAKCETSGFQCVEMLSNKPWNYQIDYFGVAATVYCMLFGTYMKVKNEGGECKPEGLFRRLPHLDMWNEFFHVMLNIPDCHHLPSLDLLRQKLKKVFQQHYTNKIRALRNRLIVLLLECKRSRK

Cc1nsc(Nc2cnc(C(F)(F)F)cn2)c1C(=O)Nc1ccc(OCCCN(C)CC(F)(F)F)nc1 [Example 354, 3-methyl-N-(6-{3-[methyl(2,2,2-trifluoroethyl)amino]propoxy}pyridin-3-yl)-5-{[5-(trifluoromethyl)pyrazin-2-yl]amino}-1,2-thiazole-4-carboxamide]
IC50 [1]: 0.11 µM

Cc1nsc(Nc2cnc(C(F)(F)F)cn2)c1C(=O)Nc1ccc(F)c(OCC2CCCN(CCF)C2)c1 (stereo not drawn) [Example 336, N-(4-fluoro-3-{[1-(2-fluoroethyl)piperidin-3-yl]methoxy}phenyl)-3-methyl-5-{[5-(trifluoromethyl)pyrazin-2-yl]amino}-1,2-thiazole-4-carboxamide]
IC50 [2]: ≥ 20 µM | IC50 [1]: 0.049 µM

Cc1nsc(Nc2cnc(C(F)(F)F)cn2)c1C(=O)Nc1ccc(OCCCN(C)CCF)nc1 [Example 352, N-(6-{3-[(2-fluoroethyl)(methyl)amino]propoxy}pyridin-3-yl)-3-methyl-5-{[5-(trifluoromethyl)pyrazin-2-yl]amino}-1,2-thiazole-4-carboxamide]
IC50 [2]: 19 µM | IC50 [1]: 0.47 µM

Cc1nsc(Nc2cnc(C(F)(F)F)cn2)c1C(=O)Nc1ccc(OC2CCCN(CC(F)F)C2)nc1 (stereo not drawn) [Example 330, N-(6-{[1-(2,2-difluoroethyl)piperidin-3-yl]oxy}pyridin-3-yl)-3-methyl-5-{[5-(trifluoromethyl)pyrazin-2-yl]amino}-1,2-thiazole-4-carboxamide]
IC50 [2]: ≥ 20 µM | IC50 [1]: 0.023 µM

Cc1nsc(Nc2ccc(C#N)cn2)c1C(=O)Nc1ccc(OC2CCNCC2)nc1 [Example 28, 5-[(5-Cyanopyridin-2-yl)amino]-3-methyl-N-[6-(piperidin-4-yloxy)pyridin-3-yl]-1,2-thiazole-4-carboxannide]
IC50 [2]: ≥ 20 µM | IC50 [1]: 11 µM

CCCN1CC[C@H](Oc2ccc(NC(=O)c3c(C)nsc3Nc3cnc(C(F)(F)F)cn3)cn2)[C@@H](F)C1 [Example 370, N-(6-{[(3S,4S)-3-fluoro-1-propylpiperidin-4-yl]oxy}pyridin-3-yl)-3-methyl-5-{[5-(trifluoromethyl)pyrazin-2-yl]amino}-1,2-thiazole-4-carboxamide]
IC50 [2]: > 20 µM | IC50 [1]: 0.022 µM

Cc1nsc(Nc2cnc(C(F)(F)F)cn2)c1C(=O)Nc1ccc(OCCN(C)CCC(F)(F)F)nc1 [Example 351, 3-methyl-N-(6-{2-[methyl(3,3,3-trifluoropropyl)amino]ethoxy}pyridin-3-yl)-5-{[5-(trifluoromethyl)pyrazin-2-yl]amino}-1,2-thiazole-4-carboxamide]
IC50 [2]: ≥ 20 µM | IC50 [1]: 0.098 µM

Cc1nsc(Nc2cnc(C(F)(F)F)cn2)c1C(=O)Nc1ccc(O[C@H]2CCCN(CC(F)F)C2)nc1 [Example 388, N-(6-{[(3S)-1-(2,2-difluoroethyl)piperidin-3-yl]oxy}pyridin-3-yl)-3-methyl-5-{[5-(trifluoromethyl)pyrazin-2-yl]amino}-1,2-thiazole-4-carboxamide]
IC50 [1]: 0.037 µM

Cc1nsc(Nc2cnc(C(F)(F)F)cn2)c1C(=O)Nc1ccc(C2CCN(CC(F)F)CC2)nc1 [Example 357, N-{6-[1-(2,2-difluoroethyl)piperidin-4 yl]pyridin-3-yl}-3-methyl-5-{[5-(trifluoromethyl)pyrazin-2-yl]amino}-1,2-thiazole-4-carboxamide]
IC50 [2]: > 20 µM | IC50 [1]: 0.044 µM

Cc1nsc(Nc2ccc(C#N)cn2)c1C(=O)Nc1ccc(OC2CCN(CCF)CC2)nc1 [Example 29, 5-[(5-Cyanopyridin-2-yl)amino]-N-(6-{[1-(2-fluoroethyl)piperidin-4-yl]oxy}pyridin-3-yl)-3-methyl-1,2-thiazole-4-carboxamide]
IC50 [2]: ≥ 20 µM | IC50 [1]: 16 µM

CCCN1CC[C@@H](Oc2ccc(NC(=O)c3c(C)nsc3Nc3cnc(C(F)(F)F)cn3)cn2)[C@H](F)C1 [Example 371, N-(6-{[(3R,4R)-3-fluoro-1-propylpiperidin-4-yl]oxy}pyridin-3-yl)-3-methyl-5-{[5-(trifluoromethyl)pyrazin-2-yl]amino}-1,2-thiazole-4-carboxamide]
IC50 [2]: > 20 µM | IC50 [1]: 0.027 µM

Cc1nsc(Nc2cnc(C(F)(F)F)cn2)c1C(=O)Nc1ccc(O[C@@H]2CCCN(CC(F)(F)F)C2)nc1 [Example 386, 3-methyl-N-(6-{[(3R)-1-(2,2,2-trifluoroethyl)piperidin-3-yl]oxy}pyridin-3-yl)-5-{[5-(trifluoromethyl)pyrazin-2-yl]amino}-1,2-thiazole-4-carboxamide]
IC50 [2]: > 20 µM | IC50 [1]: 0.041 µM

Cc1nsc(Nc2cnc(C(F)(F)F)cn2)c1C(=O)Nc1ccc(N2CCN(CCC(F)(F)F)CC2)cn1 [Example 374, 3-methyl-5-{[5-(trifluoromethyl)pyrazin-2-yl]amino}-N-{5-[4-(3,3,3-trifluoropropyl)piperazin-1-yl]pyridin-2-yl}-1,2-thiazole-4-carboxamide]
IC50 [2]: > 20 µM | IC50 [1]: 0.12 µM

Cc1nsc(Nc2cnc(C(F)(F)F)cn2)c1C(=O)Nc1ccc(O[C@H]2CCCN(CCC(F)(F)F)C2)nc1 [Example 390, 3-methyl-5-{[5-(trifluoromethyl)pyrazin-2-yl]amino}-N-(6-{[(3S)-1-(3,3,3-trifluoropropyl)piperidin-3-yl]oxy}pyridin-3-yl)-1,2-thiazole-4-carboxamide]
IC50 [1]: 0.11 µM

Cc1nsc(Nc2ccc(C#N)cn2)c1C(=O)Nc1ccc(OC2CCN(CC(F)(F)F)CC2)nc1 [Example 30, 5-[(5-Cyanopyridin-2-yl)amino]-3-methyl-N-(6-{[1-(2,2,2-trifluoroethyl)piperidin-4-yl]oxy}pyridin-3-yl)-1,2-thiazole-4-carboxamide]
IC50 [2]: ≥ 20 µM | IC50 [1]: 0.62 µM

Cc1nsc(Nc2cnc(C(F)(F)F)cn2)c1C(=O)Nc1ccc(N2CCN(CC(F)(F)F)CC2)nc1 [Example 360, 3-methyl-N-{6-[4-(2,2,2-trifluoroethyl)piperazin-1-yl]pyridin-3-yl}-5-{[5-(trifluoromethyl)pyrazin-2-yl]amino}-1,2-thiazole-4-carboxamide]
IC50 [2]: > 20 µM | IC50 [1]: 0.036 µM

Cc1nsc(Nc2cnc(C(F)(F)F)cn2)c1C(=O)Nc1ccc(N2CCN(CC(F)(F)F)CC2)cn1 [Example 373, 3-methyl-N-{5-[4-(2,2,2-trifluoroethyl)piperazin-1-yl]pyridin-2-yl}-5-{[5-(trifluoromethyl)pyrazin-2-yl]amino}-1,2-thiazole-4-carboxamide]
IC50 [2]: > 20 µM | IC50 [1]: 0.26 µM

Cc1nsc(Nc2cnc(C(F)(F)F)cn2)c1C(=O)Nc1ccc(O[C@@H]2CCN(CC(F)F)C[C@H]2F)nc1 [Example 366, N-(6-{[(3R,4R)-1-(2,2-difluoroethyl)-3-fluoropiperidin-4-yl]oxy}pyridin-3-yl)-3-methyl-5-{[5-(trifluoromethyl)pyrazin-2-yl]amino}-1,2-thiazole-4-carboxamide]
IC50 [1]: 0.058 µM

Cc1nsc(Nc2cnc(C(F)(F)F)cn2)c1C(=O)Nc1ccc(O[C@@H]2CCCN(CC(F)F)C2)nc1 [Example 385, N-(6-{[(3R)-1-(2,2-difluoroethyl)piperidin-3-yl]oxy}pyridin-3-yl)-3-methyl-5-{[5-(trifluoromethyl)pyrazin-2-yl]amino}-1,2-thiazole-4-carboxamide]
IC50 [1]: 0.18 µM

Cc1nsc(Nc2cnc(C(F)(F)F)cn2)c1C(=O)Nc1ccc(OCCN(C)CC(F)(F)F)nc1 [Example 350, 3-methyl-N-(6-{2-[methyl(2,2,2-trifluoroethyl)amino]ethoxy}pyridin-3-yl)-5-{[5-(trifluoromethyl)pyrazin-2-yl]amino}-1,2-thiazole-4-carboxamide]
IC50 [1]: 0.099 µM

Cc1nsc(Nc2cnc(C(F)(F)F)cn2)c1C(=O)Nc1ccc(OCCCN(C)CC(F)F)nc1 [Example 353, N-(6-{3-[(2,2-difluoroethyl)(methyl)amino]propoxy}pyridin-3-yl)-3-methyl-5-{[5-(trifluoromethyl)pyrazin-2-yl]amino}-1,2-thiazole-4-carboxamide]
IC50 [1]: 0.096 µM

Cc1nsc(Nc2cnc(C(F)(F)F)cn2)c1C(=O)Nc1ccc(O[C@H]2CCCN(CC(F)(F)F)C2)nc1 [Example 389, 3-methyl-N-(6-{[(3S)-1-(2,2,2-trifluoroethyl)piperidin-3-yl]oxy}pyridin-3-yl)-5-{[5-(trifluoromethyl)pyrazin-2-yl]amino}-1,2-thiazole-4-carboxamide]
IC50 [1]: 0.093 µM

Cc1nsc(Nc2cnc(C(F)(F)F)cn2)c1C(=O)Nc1ccc(OCCCN(C)CCC(F)(F)F)nc1 [Example 355, 3-methyl-N-(6-{3-[methyl(3,3,3-trifluoropropyl)amino]propoxy}pyridin-3-yl)-5-{[5-(trifluoromethyl)pyrazin-2-yl]amino}-1,2-thiazole-4-carboxamide]
IC50 [1]: 0.15 µM

Cc1nsc(Nc2cnc(C(F)(F)F)cn2)c1C(=O)Nc1ccc(OCCN(C)CCF)nc1 [Example 348, N-(6-{2-[(2-fluoroethyl)(methyl)amino]ethoxy}pyridin-3-yl)-3-methyl-5-{[5-(trifluoromethyl)pyrazin-2-yl]amino}-1,2-thiazole-4-carboxamide]
IC50 [1]: 0.31 µM

Cc1nsc(Nc2cnc(C(F)(F)F)cn2)c1C(=O)Nc1ccc(OCCN(C)CC(F)F)nc1 [Example 349, N-(6-{2-[(2,2-difluoroethyl)(methyl)amino]ethoxy}pyridin-3-yl)-3-methyl-5-{[5-(trifluoromethyl)pyrazin-2-yl]amino}-1,2-thiazole-4-carboxamide]
IC50 [1]: 0.081 µM
